Assay type in all cases: biochemical
The target of one test is T1, human Src enzyme (Homo sapiens, UniProt P12931).
T1 construct: purchased Carna Biosciences, Inc. 08-173
In words: Src enzyme inhibitory activity (time-resolved fluorometry, biotinylated peptide phosphorylation). Particulars: biotinylated peptide phosphorylation, read-out: SRC_IC50. An outline of the steps: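 Compounds were tested for blocking tyrosine phosphorylation of a biotinylated peptide substrate by recombinant human Src. Phosphorylated product was quantified by time-resolved fluorometry using europium cryptate and XL665 conjugates, and IC50 was calculated against the compound-free control.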

The target of a further test is T2, human Lck enzyme (Homo sapiens, UniProt P06239).
T2 construct: purchased Carna Biosciences, Inc. 08-170
Put plainly: Lck enzyme inhibitory activity (time-resolved fluorometry, biotinylated peptide phosphorylation). Particulars: biotinylated peptide phosphorylation, read-out: LCK_IC50. An outline of the steps:
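Readout pairs a europium cryptate-labelled anti-phosphotyrosine antibody with XL665-streptavidin, measured by time-resolved fluorescence. IC50 derived from percent inhibition against untreated controls.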

Another test addresses T3, human Yes1 enzyme (Homo sapiens, UniProt P07947).
T3 construct: made in house
Put plainly: Yes1 enzyme inhibitory activity (time-resolved fluorometry, biotinylated peptide phosphorylation). Particulars: biotinylated peptide phosphorylation, read-out: YES_IC50. An outline of the steps:
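Inhibition was expressed against a compound-free control to give IC50, using TR-FRET read-out (Eu-cryptate anti-pTyr antibody, streptavidin-XL665).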

T3 sequence (P07947 whole entry): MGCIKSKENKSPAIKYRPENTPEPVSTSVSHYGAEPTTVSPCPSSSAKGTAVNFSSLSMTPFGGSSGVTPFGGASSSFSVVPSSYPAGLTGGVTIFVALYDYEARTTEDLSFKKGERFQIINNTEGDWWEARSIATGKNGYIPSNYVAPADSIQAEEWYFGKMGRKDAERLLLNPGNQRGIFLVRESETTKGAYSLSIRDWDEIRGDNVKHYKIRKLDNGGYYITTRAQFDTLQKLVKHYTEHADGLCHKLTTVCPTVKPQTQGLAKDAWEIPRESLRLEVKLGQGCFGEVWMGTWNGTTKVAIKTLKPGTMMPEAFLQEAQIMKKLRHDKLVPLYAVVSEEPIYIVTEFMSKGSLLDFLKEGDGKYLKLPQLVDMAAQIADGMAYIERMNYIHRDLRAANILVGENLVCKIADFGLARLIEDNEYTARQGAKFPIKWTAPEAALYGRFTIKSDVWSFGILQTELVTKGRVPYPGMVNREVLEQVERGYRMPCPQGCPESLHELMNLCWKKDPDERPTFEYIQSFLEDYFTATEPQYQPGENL
T2 sequence (P06239 whole entry): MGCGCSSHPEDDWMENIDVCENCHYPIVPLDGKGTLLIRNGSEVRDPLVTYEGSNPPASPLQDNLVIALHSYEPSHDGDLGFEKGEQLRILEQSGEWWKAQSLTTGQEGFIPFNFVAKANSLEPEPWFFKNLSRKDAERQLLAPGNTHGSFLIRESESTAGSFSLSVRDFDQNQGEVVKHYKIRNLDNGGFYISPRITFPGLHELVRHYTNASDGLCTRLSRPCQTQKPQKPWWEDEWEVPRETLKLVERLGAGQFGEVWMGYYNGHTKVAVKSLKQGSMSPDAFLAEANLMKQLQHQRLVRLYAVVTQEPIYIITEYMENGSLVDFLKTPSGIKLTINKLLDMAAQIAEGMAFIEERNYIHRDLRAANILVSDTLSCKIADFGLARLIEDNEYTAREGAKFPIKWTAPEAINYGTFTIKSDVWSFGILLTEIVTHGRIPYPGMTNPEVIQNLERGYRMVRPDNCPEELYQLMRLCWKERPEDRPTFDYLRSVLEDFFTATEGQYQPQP
T1 sequence (P12931 whole entry): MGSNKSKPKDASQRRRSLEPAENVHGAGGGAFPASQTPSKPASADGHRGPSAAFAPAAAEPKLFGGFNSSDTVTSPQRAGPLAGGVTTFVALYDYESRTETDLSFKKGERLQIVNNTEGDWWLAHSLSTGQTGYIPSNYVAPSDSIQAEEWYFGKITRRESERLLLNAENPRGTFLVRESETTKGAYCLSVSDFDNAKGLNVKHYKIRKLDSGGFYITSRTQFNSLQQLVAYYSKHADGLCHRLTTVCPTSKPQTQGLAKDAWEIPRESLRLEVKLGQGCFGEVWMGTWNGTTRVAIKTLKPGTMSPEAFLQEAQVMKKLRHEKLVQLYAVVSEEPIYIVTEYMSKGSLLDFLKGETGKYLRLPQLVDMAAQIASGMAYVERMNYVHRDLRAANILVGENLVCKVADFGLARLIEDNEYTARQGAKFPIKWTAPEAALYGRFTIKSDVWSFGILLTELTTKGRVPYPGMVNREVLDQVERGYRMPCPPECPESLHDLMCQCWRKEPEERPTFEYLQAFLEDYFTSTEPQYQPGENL

Take `Cc1cc(Oc2c(F)cccc2F)ncc1-n1ncc(C(=O)c2cc3cc(OCC(F)F)c(NS(C)(=O)=O)cc3[nH]2)c1N` [Example 4-24-031, N-[2-[5-amino-1-[6-(2,6-difluorophenoxy)-4-methylpyridin-3-yl]pyrazole-4-carbonyl]-5-(2,2-difluoroethoxy)-1H-indol-6-yl]methanesulfonamide]: the IC50 on human Src enzyme is 21 nM; on human Lck enzyme it was 6.7 nM; at human Yes1 enzyme it was 1.2 nM.

As to `Cc1cc(Oc2c(F)cccc2F)ncc1-n1ncc(C(=O)c2cc3cc(OCC(F)F)c(NS(=O)(=O)CCCF)cc3[nH]2)c1N` [Example 4-24-032, N-[2-[5-amino-1-[6-(2,6-difluorophenoxy)-4-methylpyridin-3-yl]pyrazole-4-carbonyl]-5-(2,2-difluoroethoxy)-1H-indol-6-yl]-3-fluoropropane-1-sulfonamide], the IC50 on human Src enzyme came out at 57 nM; on human Lck enzyme, 14 nM; on human Yes1 enzyme, 0.64 nM.

`Cc1cc(Oc2c(F)cccc2F)ncc1-n1ncc(C(=O)c2cc3cc(OCC(F)F)c(NS(=O)(=O)CCC(F)F)cc3[nH]2)c1N` [Example 4-24-033, N-[2-[5-amino-1-[6-(2,6-difluorophenoxy)-4-methylpyridin-3-yl]pyrazole-4-carbonyl]-5-(2,2-difluoroethoxy)-1H-indol-6-yl]-3,3-difluoropropane-1-sulfonamide]: the IC50 on human Src enzyme turned out to be 88 nM; on human Lck enzyme it was 16 nM; on human Yes1 enzyme, 4.9 nM.

On to `Cc1cc(Oc2ccccc2F)ccc1-n1ncc(C(=O)c2cc3cc(OCCN4CCOCC4)c(NS(C)(=O)=O)cc3[nH]2)c1N` [Example 4-24-034, N-[2-[5-amino-1-[4-(2-fluorophenoxy)-2-methylphenyl]pyrazole-4-carbonyl]-5-(2-morpholin-4-ylethoxy)-1H-indol-6-yl]methanesulfonamide], for which the IC50 stood at 8.1 nM on human Src enzyme, 4.7 nM at human Lck enzyme and 0.39 nM on human Yes1 enzyme.

Regarding `COc1cc2cc(C(=O)c3cnn(-c4cnc(Oc5c(F)cccc5F)cc4C)c3N)[nH]c2cc1NS(=O)(=O)C1CC1` [Example 4-24-035, N-[2-[5-amino-1-[6-(2,6-difluorophenoxy)-4-methylpyridin-3-yl]pyrazole-4-carbonyl]-5-methoxy-1H-indol-6-yl]cyclopropanesulfonamide], the IC50 is 47 nM on human Src enzyme, 5 nM on human Lck enzyme and 1.2 nM at human Yes1 enzyme.

As to `Cc1cc(Oc2ccccc2F)ccc1-n1ncc(C(=O)c2cc3cc(OC4CCOCC4)c(NS(C)(=O)=O)cc3[nH]2)c1N` [Example 4-24-036, N-{2-{5-amino-1-[4-(2-fluorophenoxy)-2-methylphenyl]pyrazole-4-carbonyl}-5-(oxan-4-yloxy)-1H-indol-6-yl}methanesulfonamide], the figures for the IC50 at human Src enzyme, on human Lck enzyme and at human Yes1 enzyme were 120 nM, 20 nM and 4.2 nM, respectively.

As for `Cc1cc(Oc2ccccc2F)ccc1-n1ncc(C(=O)c2cc3cc(OCCN4CC5CC(C4)N5S(C)(=O)=O)c(NS(C)(=O)=O)cc3[nH]2)c1N` [Example 4-24-037], the IC50 amounted to 24 nM at human Src enzyme, 3.8 nM at human Lck enzyme and 0.67 nM on human Yes1 enzyme.

Consider `Cc1cc(Oc2ccccc2F)ccc1-n1ncc(C(=O)c2cc3cc(OCCN4C[C@@H]5C[C@H]4CN5S(C)(=O)=O)c(NS(C)(=O)=O)cc3[nH]2)c1N` [Example 4-24-038, N-[2-[5-amino-1-[4-(2-fluorophenoxy)-2-methylphenyl]pyrazole-4-carbonyl]-5-[2-[(1S,4S)-2-methylsulfonyl-2,5-diazabicyclo[2.2.1]heptan-5-yl]ethoxy]-1H-indol-6-yl]methanesulfonamide], for which the IC50 turned out to be 6.9 nM on human Src enzyme, 2.9 nM on human Lck enzyme and 0.55 nM at human Yes1 enzyme.

Consider `Cc1cc(Oc2ccccc2F)ccc1-n1ncc(C(=O)c2cc3cc(OCCN4[C@@H]5CC[C@H]4COC5)c(NS(C)(=O)=O)cc3[nH]2)c1N` [Example 4-24-039, N-[2-[5-amino-1-[4-(2-fluorophenoxy)-2-methylphenyl]pyrazole-4-carbonyl]-5-[2-[(1S,5R)-3-oxa-8-azabicyclo[3.2.1]octan-8-yl]ethoxy]-1H-indol-6-yl]methanesulfonamide], for which the IC50 on human Src enzyme came out at 8.3 nM; on human Lck enzyme it was 2.8 nM; on human Yes1 enzyme, 0.46 nM.

Take `Cc1cc(Oc2ccccc2F)ncc1-n1ncc(C(=O)c2cc3cc(OCC(F)F)c(N4CCCS4(=O)=O)cc3[nH]2)c1N` [Example 4-25-001, {5-amino-1-[6-(2-fluorophenoxy)-4-methylpyridin-3-yl]pyrazol-4-yl}-[5-(2,2-difluoroethoxy)-6-(1,1-dioxo-1,2-thiazolidin-2-yl)-1H-indol-2-yl]methanone]: the IC50 is 29 nM at human Src enzyme, 9.6 nM at human Lck enzyme and 1.6 nM at human Yes1 enzyme.

`Cc1cc(Oc2ccccc2F)ccc1-n1ncc(C(=O)c2cc3cc(OC(F)F)c(N4CCCS4(=O)=O)cc3[nH]2)c1N` [Example 4-25-002, [5-amino-1-[4-(2-fluorophenoxy)-2-methylphenyl]pyrazol-4-yl]-[5-(difluoromethoxy)-6-(1,1-dioxo-1,2-thiazolidin-2-yl)-1H-indol-2-yl]methanone]: the figures for the IC50 on human Src enzyme, at human Lck enzyme and at human Yes1 enzyme were 37 nM, 15 nM and 3.1 nM, respectively.

As to `Cc1cc(Oc2ccccc2F)cc(F)c1-n1ncc(C(=O)c2cc3cc(OC(F)F)c(N4CCCS4(=O)=O)cc3[nH]2)c1N` [Example 4-25-003, [5-amino-1-[2-fluoro-4-(2-fluorophenoxy)-6-methylphenyl]pyrazol-4-yl]-[5-(difluoromethoxy)-6-(1,1-dioxo-1,2-thiazolidin-2-yl)-1H-indol-2-yl]methanone], the IC50 on human Src enzyme was 130 nM; on human Lck enzyme it was 19 nM; at human Yes1 enzyme, 3.9 nM.

`Cc1cc(Oc2ccccc2F)ncc1-n1ncc(C(=O)c2cc3cc(OC(F)F)c(N4CCCS4(=O)=O)cc3[nH]2)c1N` [Example 4-25-004, [5-amino-1-[6-(2-fluorophenoxy)-4-methylpyridin-3-yl]pyrazol-4-yl]-[5-(difluoromethoxy)-6-(1,1-dioxo-1,2-thiazolidin-2-yl)-1H-indol-2-yl]methanone]: the IC50 came out at 48 nM at human Src enzyme, 8.7 nM at human Lck enzyme and 1 nM at human Yes1 enzyme.

Regarding `Cc1cc(Oc2c(F)cccc2F)ncc1-n1ncc(C(=O)c2cc3cc(OC(F)F)c(N4CCCS4(=O)=O)cc3[nH]2)c1N` [Example 4-25-005, [5-amino-1-[6-(2,6-difluorophenoxy)-4-methylpyridin-3-yl]pyrazol-4-yl]-[5-(difluoromethoxy)-6-(1,1-dioxo-1,2-thiazolidin-2-yl)-1H-indol-2-yl]methanone], the figures for the IC50 at human Src enzyme, on human Lck enzyme and on human Yes1 enzyme were 53 nM, 11 nM and 3.9 nM, respectively.

As for `Cc1cc(Oc2ccccc2F)ccc1-n1ncc(C(=O)c2cc3cc(N4CCOCC4)c(N4CCCS4(=O)=O)cc3[nH]2)c1N` [Example 4-25-006, [5-amino-1-[4-(2-fluorophenoxy)-2-methylphenyl]pyrazol-4-yl]-[6-(1,1-dioxo-1,2-thiazolidin-2-yl)-5-morpholin-4-yl-1H-indol-2-yl]methanone], the IC50 on human Src enzyme worked out at 18 nM; at human Lck enzyme, 9 nM; at human Yes1 enzyme it was 1.1 nM.

In the case of `Cc1cc(Oc2ccccc2F)ncc1-n1ncc(C(=O)c2cc3cc(N4CCOCC4)c(N4CCCS4(=O)=O)cc3[nH]2)c1N` [Example 4-25-007, [5-amino-1-[6-(2-fluorophenoxy)-4-methylpyridin-3-yl]pyrazol-4-yl]-[6-(1,1-dioxo-1,2-thiazolidin-2-yl)-5-morpholin-4-yl-1H-indol-2-yl]methanone], the values for the IC50 at human Src enzyme, at human Lck enzyme and on human Yes1 enzyme were 23 nM, 5.2 nM and 1.1 nM, respectively.

Consider `Cc1cc(Oc2c(F)cccc2F)ncc1-n1ncc(C(=O)c2cc3cc(N4CCOCC4)c(N4CCCS4(=O)=O)cc3[nH]2)c1N` [Example 4-25-008, [5-amino-1-[6-(2,6-difluorophenoxy)-4-methylpyridin-3-yl]pyrazol-4-yl]-[6-(1,1-dioxo-1,2-thiazolidin-2-yl)-5-morpholin-4-yl-1H-indol-2-yl]methanone], for which the IC50 stood at 22 nM at human Src enzyme, 8.2 nM at human Lck enzyme and 1.5 nM at human Yes1 enzyme.

Consider `Cc1cc(Oc2ccccc2F)ccc1-n1ncc(C(=O)c2cc3cc(OCC(F)F)c(N4CCCS4(=O)=O)cc3[nH]2)c1N` [Example 4-25-009, [5-amino-1-[4-(2-fluorophenoxy)-2-methylphenyl]pyrazol-4-yl]-[5-(2,2-difluoroethoxy)-6-(1,1-dioxo-1,2-thiazolidin-2-yl)-1H-indol-2-yl]methanone], for which the values for the IC50 at human Src enzyme, on human Lck enzyme and on human Yes1 enzyme were 32 nM, 18 nM and 3.5 nM, respectively.

With `Cc1cc(Oc2ccccc2F)cc(F)c1-n1ncc(C(=O)c2cc3cc(OCC(F)F)c(N4CCCS4(=O)=O)cc3[nH]2)c1N` [Example 4-25-010, [5-amino-1-[2-fluoro-4-(2-fluorophenoxy)-6-methylphenyl]pyrazol-4-yl]-[5-(2,2-difluoroethoxy)-6-(1,1-dioxo-1,2-thiazolidin-2-yl)-1H-indol-2-yl]methanone], the IC50 on human Src enzyme was determined as 16 nM; at human Lck enzyme it was 7.4 nM; at human Yes1 enzyme, 1.7 nM.

With `Cc1cc(Oc2c(F)cccc2F)ncc1-n1ncc(C(=O)c2cc3cc(OCC(F)F)c(N4CCCS4(=O)=O)cc3[nH]2)c1N` [Example 4-25-011, [5-amino-1-[6-(2,6-difluorophenoxy)-4-methylpyridin-3-yl]pyrazol-4-yl]-[5-(2,2-difluoroethoxy)-6-(1,1-dioxo-1,2-thiazolidin-2-yl)-1H-indol-2-yl]methanone], the IC50 on human Src enzyme turned out to be 11 nM; on human Lck enzyme, 4.1 nM; on human Yes1 enzyme, 1.4 nM.

The values are drawn from patent publication US10479780B2, “Aminopyrazole derivatives” (Chugai Seiyaku Kabushiki Kaisha, priority 2015, dated 2019).
